US20080090814A1, “PYRIDAZINONE COMPOUNDS” (Anadys Pharmaceuticals, Inc., priority 2006, published 2008)

molecular target: HCV NS5B polymerase (Hepatitis C virus genotype 1a, UniProt P27958); assay: HCV polymerase inhibition assay (FlashPlate, [α-33P]GTP incorporation); format: biochemical; conditions: 20 nM enzyme, 0.6 μM GTP, 250 nM 5′biotinylated oligo (rG13)/poly rC, 75 min at 28° C.
Method: Compounds were tested for HCV polymerase inhibition. Assays were performed in a 96-well streptavidin-coated FlashPlate using 20 nM enzyme, 0.5 μCi of [α-^33P]GTP, 0.6 μM GTP, and 250 nM 5′biotinylated oligo (rG13)/poly rC in 20 mM Tris-HCl, pH 7.5, 5 mM MgCl2, 5 mM dithiothreitol, 0.1 g/L bovine serum albumin, and 100 U/mL RNAse inhibitor. The reaction was stopped by aspiration after 75 min at 28° C. and the plate was washed several times. After washing and drying the plate, incorporated radioactivity was counted using a Microbeta scintillation counter. IC50 values were calculated relative to the uninhibited control and inhibition data were fitted to a 4-parameter IC50 equation. For very potent inhibitors, the data were fitted to a tight binding quadratic equation to obtain IC50 values.

Sequence of HCV NS5B polymerase (P27958 2421-3011): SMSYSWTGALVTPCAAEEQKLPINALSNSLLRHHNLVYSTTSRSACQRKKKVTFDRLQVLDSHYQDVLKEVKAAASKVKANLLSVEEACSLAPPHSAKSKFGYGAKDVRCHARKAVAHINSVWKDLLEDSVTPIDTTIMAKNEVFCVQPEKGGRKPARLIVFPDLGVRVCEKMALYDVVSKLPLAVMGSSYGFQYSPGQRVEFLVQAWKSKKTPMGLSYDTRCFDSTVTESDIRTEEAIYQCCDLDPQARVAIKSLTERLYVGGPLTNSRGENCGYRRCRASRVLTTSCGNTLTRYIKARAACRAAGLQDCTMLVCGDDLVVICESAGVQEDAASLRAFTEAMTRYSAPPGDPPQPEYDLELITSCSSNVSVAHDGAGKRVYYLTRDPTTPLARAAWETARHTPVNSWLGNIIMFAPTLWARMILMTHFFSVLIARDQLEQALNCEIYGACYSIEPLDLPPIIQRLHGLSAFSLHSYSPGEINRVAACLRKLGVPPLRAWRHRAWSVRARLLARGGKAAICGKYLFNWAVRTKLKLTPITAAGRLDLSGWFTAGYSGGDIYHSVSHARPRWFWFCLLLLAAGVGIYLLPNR

`CCCCc1nn(CCC(C)C)c(=O)c(C2=CS(=O)(=O)c3ccccc3N2)c1O` [Compound 25, 6-Butyl-4-(1,1-dioxo-1,4-dihydro-1λ^6-benzo[1,4]thiazin-3-yl)-5-hydroxy-2-(3-methyl-butyl)-2H-pyridazin-3-one] and `CC(C)CCn1nc(-c2cccs2)c(O)c(C2=CS(=O)(=O)c3ccccc3N2)c1=O` [Compound 16, 4-(1,1-Dioxo-1,4-dihydro-1λ^6-benzo[1,4]thiazin-3-yl)-5-hydroxy-2-(3-methyl-butyl)-6-thiophen-2-yl-2H-pyridazin-3-one] cannot be ordered by IC50: > 1000 nM for the first, > 1000 nM for the second.

With `CC(C)CCn1nc(-c2cccs2)c(O)c(C2=CS(=O)(=O)c3cc(NS(C)(=O)=O)ccc3N2)c1=O` [Compound 29, N-{3-[5-Hydroxy-2-(3-methyl-butyl)-3-oxo-6-thiophen-2-yl-2,3-dihydro-pyridazin-4-yl]-1,1-dioxo-1,4-dihydro-1λ^6-benzo[1,4]thiazin-7-yl}-methanesulfonamide] the IC50 was < 1000 nM.
